Patent publication US5098925A, “Spiro-dihydroisoindole compounds” (ICI Americas Inc., priority 1990, dated 1992)
pIC50: −log10 of the molar value.

What was measured:
[1] = system: neuronal damage in the hippocampus; test: gerbil ischemic model (bilateral carotid occlusion, neuronal damage in the hippocampus); assay type: in vivo, Mongolian gerbils; details: ip dose of 60 mg/kg
Protocol: Typically an animal is rendered ischemic, for example, for transient occlusion of the carotid artery. A test compound is then administered to said ischemic animal at or about the time of the ischemica event. The ability of the test compound to reduce or prevent neurological degeneration may then be assessed, for example, by sacrificing the animal, followed by conventional histological examination of suitable brain tissue. For example, the following is a description of a suitable test in vivo using the gerbil model.
When testing in vivo using the gerbil ischemic model, adult female Mongolian gerbils (50-70 g) are anesthetized with 2 to 3% halothane. The bilateral common carotid arteries at the neck are exposed and occluded with microaneurysm clips. After 10 min (unless specified), the clips are removed and the blood flow through the carotid arteries is restored and the skin is sutured. […] Gross behavioral observations along with motor activity are recorded for 2 hr on the first (24 hr) day following the occlusion. […]
Sections (7 micron) are evaluated from each brain. […] The average brain damage rating score for each group is recorded, and the damage scores of the drug treated group are compared to the vehicle-treated group using Wilcoxcon ranks sum test.

[2] = molecular target: phencyclidine (PCP) receptor of the NMDA receptor complex; test: [3H]-TCP binding (displacement of specific [3H]TCP binding); design: species or system Sprague-Dawley rats; details: [3H]-TCP 2.5 nM; rat cortex/hippocampus synaptic membranes; 30 min, 37° C., pH 7.7; read-out: IC50 value, 50% inhibition of total specific [3H]TCP binding
Description: The actions of compounds of formula I as an antagonist at the phencyclidine (PCP) receptor of the NMDA receptor complex can be shown using known in vitro tests, for example that described in Vignon et al., Brain Research, 280, 194-197 (1983). Vignon et al. disclose that tritiated N-(1-[2-thienyl]cyclohexyl)-3,4-[^3 H]-piperidine (also abbreviated as [^3 H]-TCP) binds to PCP binding sites (e.g. in rat brains) more strongly than PCP itself. […] [^3 H]-TCP thus provides a useful tool for measuring the binding affinities of compounds which bind to PCP receptors such as the PCP site in the NMDA receptor complex.
Specifically when it is desired to measure the binding affinity of a compound of formula I, a source of (brain) NMDA receptors is generated by preparing neuronal synaptic membranes from adult Sprague-Dawley rats. In brief, freshly dissected cortices and hippocampi were homogenized in 0.32 M sucrose (100 mg/ml). […]
The procedure for [^3 H]-TCP binding is adapted from Vignon et al. (1983). […] Non-specific binding is determined with 100 μM MK-801, a […] well known and characterized in the art as set forth for example, in European Patent Application 0 230 370, published July 29, 1987. […] Radioactivity is measured by liquid scintillation counting. The specific activity of the [^3 H]TCP is used to convert the radioactivity measured to concentration [^3 H]TCP bound. […]

`CN1Cc2ccccc2C12CCCc1sccc12` (stereo not shown) [Example 21, 2'-Methylspiro[4,5,6,7-tetrahydrobenzothiophene-4,1'-(1,3-dihydroisoindole)]] was tested, and the neuroprotective effect [1] was “significant neuroprotective effect” and the overt toxic effects [1] was “without any overt toxic effects”.

`c1ccc2c(c1)CNC21CCCc2sccc21` (stereo not shown) [Example 20, Spiro[4,5,6,7-tetrahydrobenzothiophene-4,1'-(1,3-dihydroisoindole)]] showed a pIC50 [2] of 6.22.

For `COc1cccc2c1CCC21NCc2ccccc21` (stereo not shown) [Example 18, 4-Methoxyspiro[indan-1,1'-(1,3-dihydroisoindole)]], the pIC50 [2] was 5.30.
